The values that follow come from paper PMC7338687, “Allosteric Coupling Between Drug Binding and the Aromatic Cassette in the Pore Domain of the hERG1 Channel: Implications for a State-Dependent Blockade” (Frontiers in Pharmacology, 2020).

The target in one data set is T1, F557L/F656C hERG1 (Homo sapiens, UniProt Q12809, F557L/F656C).
T1 construct: expressed in transfected cells; host or cells: HEK 293
Nature of the data set: whole-cell patch-clamp of hERG1 tail currents, double mutation F557L/F656C. It is filed as cell-based. From the text:
(§1) The site-directed mutagenesis methods utilized in this work have been previously reported ([Lees-Miller et al., 2015]; [Wang et al., 2016]). The hERG1 constructs were transfected into mammalian HEK cells. Conventional overlap PCR with primers were synthesized by Sigma Genosys (Oakville, Ontario, Canada) and sequenced by using Eurofins MWG Operon (Huntsville, AL) to create the single- and double-point mutant constructs of hERG1. Following this, XbaI restriction endonuclease was used to linearize and the cRNA was transcribed in vitro using the mMessage mMachine T7 Ultra cRNA transcription kit (Ambion, Austin, TX).
(§2) All experiments were performed under room temperature (295 K). The extracellular solution contained (mM) NaCl 140, KCl 5.4, CaCl2 1, MgCl2 1, HEPES 5, glucose 5.5; the pH of the solution was adjusted and kept at 7.4 with NaOH solution. Micropipettes were pulled from borosilicate glass capillary tubes using a programmable horizontal puller (Sutter Instruments, Novato, CA). […] Tail currents were recorded when the voltage was returned to −100 mV from +50 mV. […] The changes of hERG1 currents during the intracellular dialysis of the drug were monitored each minute right after forming the whole cell configuration. […]
A general note: In patch-clamp work, channel activity is measured electrically.

A further data set concerns the target T2, hERG1 (Homo sapiens, UniProt Q12809).
T2 construct: expressed in transfected cells; host or cells: HEK 293
Nature of the data set: intracellular application of drug via the patch pipette, hERG1 current. It is filed as cell-based. The note with it: 100 µM (15-fold greater than extracellular IC50). The procedure:
All experiments were performed under room temperature (295 K). The extracellular solution contained (mM) NaCl 140, KCl 5.4, CaCl2 1, MgCl2 1, HEPES 5, glucose 5.5; the pH of the solution was adjusted and kept at 7.4 with NaOH solution. Micropipettes were pulled from borosilicate glass capillary tubes using a programmable horizontal puller (Sutter Instruments, Novato, CA). The “intracellular” pipette solution contained the following: 10 mM KCl, 110 mM K-aspartate, 5 mM MgCl2, 5 mM Na2ATP, 10 mM EGTA [ethylene glycol-bis(-aminoethyl ether)-N,N,N,N tetraacetic acid], 5 mM HEPES, and 1mM CaCl2. The internal solution was then adjusted to pH 7.2 with KOH solution. Transfected HEK cells were patched to record the hERG1 currents. Standard patch-clamp methods were used to measure the whole cell currents of hERG1 mutants expressed in HEK 293 cells using the AXOPATCH 200B amplifier (Axon Instruments). Tail currents were recorded when the voltage was returned to −100 mV from +50 mV. Ivabradine was dissolved in Tyrode solution immediately before the experiments and the solutions were used for the next 2 h during the experiments. […] The changes of hERG1 currents during the intracellular dialysis of the drug were monitored each minute right after forming the whole cell configuration.

The target in another data set is WT hERG1 (Homo sapiens, UniProt Q12809). Nature of the data set: cell-based. The note with it: HEK 293 cells.
Description: as §1, §2

Another data set concerns the target F656C hERG1 (Homo sapiens, UniProt Q12809, F656C). Nature of the data set: whole-cell patch-clamp of hERG1 tail currents, F656C mutant.
Description: as §1, §2

A further data set has as its system guinea pig myocytes. Also on record: method as in Duff et al., 1995. The note with it: ref Duff et al., 1995, cited from earlier work.
In the next data set the test system is M651T hERG1. Also on record: method as in Perissinotti et al., 2019. The note with it: ref Perissinotti et al., 2019; cited from earlier work.

Read-outs that look alike come from different tables or passages of the source.

T1 sequence (Q12809 whole entry F557L/F656C): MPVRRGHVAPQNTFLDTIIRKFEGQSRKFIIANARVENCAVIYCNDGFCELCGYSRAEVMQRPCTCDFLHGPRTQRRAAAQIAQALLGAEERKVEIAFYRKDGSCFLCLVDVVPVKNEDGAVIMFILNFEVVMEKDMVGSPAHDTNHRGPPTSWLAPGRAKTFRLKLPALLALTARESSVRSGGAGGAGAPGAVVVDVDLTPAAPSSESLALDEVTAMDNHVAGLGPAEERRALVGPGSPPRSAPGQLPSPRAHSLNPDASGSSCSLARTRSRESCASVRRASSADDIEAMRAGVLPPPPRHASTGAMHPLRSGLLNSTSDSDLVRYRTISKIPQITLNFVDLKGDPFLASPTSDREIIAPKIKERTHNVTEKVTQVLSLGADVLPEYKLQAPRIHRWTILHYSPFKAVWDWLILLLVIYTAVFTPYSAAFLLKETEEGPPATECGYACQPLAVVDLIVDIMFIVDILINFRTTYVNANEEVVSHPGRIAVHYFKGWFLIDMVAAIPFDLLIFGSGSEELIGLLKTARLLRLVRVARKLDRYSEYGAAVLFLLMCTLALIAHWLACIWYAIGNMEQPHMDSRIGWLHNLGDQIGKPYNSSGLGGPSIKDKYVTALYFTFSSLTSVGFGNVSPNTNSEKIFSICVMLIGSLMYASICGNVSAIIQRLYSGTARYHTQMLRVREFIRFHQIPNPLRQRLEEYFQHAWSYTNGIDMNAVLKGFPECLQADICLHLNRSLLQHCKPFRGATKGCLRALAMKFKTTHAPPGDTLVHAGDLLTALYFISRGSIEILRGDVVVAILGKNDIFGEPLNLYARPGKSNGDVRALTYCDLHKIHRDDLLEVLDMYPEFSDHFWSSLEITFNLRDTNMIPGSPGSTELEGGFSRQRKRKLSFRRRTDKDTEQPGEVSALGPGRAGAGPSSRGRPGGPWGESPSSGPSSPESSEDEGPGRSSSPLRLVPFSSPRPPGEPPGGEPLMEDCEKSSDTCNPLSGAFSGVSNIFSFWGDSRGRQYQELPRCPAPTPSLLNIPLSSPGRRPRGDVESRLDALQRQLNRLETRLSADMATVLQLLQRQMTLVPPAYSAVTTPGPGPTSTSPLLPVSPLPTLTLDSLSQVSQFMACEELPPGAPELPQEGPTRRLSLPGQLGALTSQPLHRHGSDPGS
Sequence of WT hERG1 (Q12809 whole entry): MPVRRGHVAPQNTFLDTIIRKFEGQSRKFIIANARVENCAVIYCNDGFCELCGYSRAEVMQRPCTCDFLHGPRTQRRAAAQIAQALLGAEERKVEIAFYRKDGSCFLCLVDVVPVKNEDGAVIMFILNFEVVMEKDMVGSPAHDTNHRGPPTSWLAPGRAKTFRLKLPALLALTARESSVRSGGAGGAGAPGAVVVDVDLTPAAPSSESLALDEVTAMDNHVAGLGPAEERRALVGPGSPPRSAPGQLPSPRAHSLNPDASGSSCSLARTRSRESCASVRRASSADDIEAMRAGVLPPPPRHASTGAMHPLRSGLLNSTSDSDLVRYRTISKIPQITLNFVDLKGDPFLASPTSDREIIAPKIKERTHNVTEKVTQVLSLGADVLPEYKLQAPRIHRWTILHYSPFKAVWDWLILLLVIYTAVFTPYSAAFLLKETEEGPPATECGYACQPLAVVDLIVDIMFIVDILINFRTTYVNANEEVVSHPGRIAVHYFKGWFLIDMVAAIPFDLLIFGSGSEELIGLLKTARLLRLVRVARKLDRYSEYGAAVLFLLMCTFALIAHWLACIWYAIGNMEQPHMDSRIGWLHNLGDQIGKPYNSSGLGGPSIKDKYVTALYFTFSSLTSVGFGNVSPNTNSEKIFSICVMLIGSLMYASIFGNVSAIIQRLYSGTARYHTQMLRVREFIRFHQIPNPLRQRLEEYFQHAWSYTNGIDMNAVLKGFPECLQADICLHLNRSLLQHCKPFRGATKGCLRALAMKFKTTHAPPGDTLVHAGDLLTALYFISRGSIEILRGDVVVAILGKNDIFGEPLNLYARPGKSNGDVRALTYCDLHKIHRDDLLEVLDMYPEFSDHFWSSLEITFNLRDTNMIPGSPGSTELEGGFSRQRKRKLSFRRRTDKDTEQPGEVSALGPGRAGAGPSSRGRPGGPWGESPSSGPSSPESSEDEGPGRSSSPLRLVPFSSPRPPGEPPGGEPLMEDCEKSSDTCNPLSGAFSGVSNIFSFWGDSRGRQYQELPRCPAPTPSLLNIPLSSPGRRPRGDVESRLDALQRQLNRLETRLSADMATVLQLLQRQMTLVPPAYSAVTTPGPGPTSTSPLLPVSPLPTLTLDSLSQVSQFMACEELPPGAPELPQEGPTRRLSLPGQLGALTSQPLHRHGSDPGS
T2 sequence (Q12809 whole entry): as above
Sequence of F656C hERG1 (Q12809 whole entry F656C): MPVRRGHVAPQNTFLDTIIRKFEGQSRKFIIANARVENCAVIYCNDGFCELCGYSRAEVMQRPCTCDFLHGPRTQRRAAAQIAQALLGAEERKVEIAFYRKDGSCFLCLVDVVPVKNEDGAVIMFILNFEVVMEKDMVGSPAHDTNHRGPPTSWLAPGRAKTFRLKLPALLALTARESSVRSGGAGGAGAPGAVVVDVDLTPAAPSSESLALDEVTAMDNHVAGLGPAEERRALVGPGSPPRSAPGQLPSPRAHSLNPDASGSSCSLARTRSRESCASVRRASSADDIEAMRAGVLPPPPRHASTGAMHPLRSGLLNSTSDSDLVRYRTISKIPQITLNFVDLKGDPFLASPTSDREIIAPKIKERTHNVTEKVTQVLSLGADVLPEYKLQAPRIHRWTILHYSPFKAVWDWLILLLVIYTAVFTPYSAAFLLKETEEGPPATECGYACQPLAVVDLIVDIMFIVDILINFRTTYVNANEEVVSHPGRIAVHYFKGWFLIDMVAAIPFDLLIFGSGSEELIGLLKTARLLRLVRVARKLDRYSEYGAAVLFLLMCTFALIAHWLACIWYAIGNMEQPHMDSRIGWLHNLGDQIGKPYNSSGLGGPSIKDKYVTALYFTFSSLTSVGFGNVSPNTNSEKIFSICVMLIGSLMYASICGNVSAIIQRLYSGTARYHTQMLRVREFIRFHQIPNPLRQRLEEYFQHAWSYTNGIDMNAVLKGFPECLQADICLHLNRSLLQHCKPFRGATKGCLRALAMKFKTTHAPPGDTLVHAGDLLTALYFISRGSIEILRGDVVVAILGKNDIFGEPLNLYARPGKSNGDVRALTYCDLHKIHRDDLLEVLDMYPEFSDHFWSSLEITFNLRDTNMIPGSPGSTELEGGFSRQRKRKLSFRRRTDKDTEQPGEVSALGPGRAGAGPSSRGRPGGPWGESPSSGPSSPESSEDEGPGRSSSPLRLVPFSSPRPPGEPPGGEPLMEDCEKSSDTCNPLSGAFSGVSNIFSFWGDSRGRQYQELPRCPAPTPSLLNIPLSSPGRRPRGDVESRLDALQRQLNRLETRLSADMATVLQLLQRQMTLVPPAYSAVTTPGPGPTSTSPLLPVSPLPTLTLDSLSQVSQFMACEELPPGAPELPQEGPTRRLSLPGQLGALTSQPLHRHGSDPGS

For `COc1cc2c(cc1OC)CC(=O)N(CCCN(C)C[C@H]1Cc3cc(OC)c(OC)cc31)CC2` [ivabradine], the “block in raw current traces” value on F557L/F656C hERG1 (F557L/F656C, 100 µM Ivabradine vs control) is given as “no block”. Moreover, the blocking at F557L/F656C hERG1 (double mutant F557L/F656C, suprapharmacologic concentrations (dofetilide 20 µM, ivabradine 100 µM)) was ~ 15%. Moreover, at hERG1, the “block of hERG1 current when applied intracellularly” value is “little block”. Further, the IC50 is 6.8 µM against WT hERG1 (IC50 for block (Hill fit), WT, Figure 7A); 6.7 µM against WT hERG1 (IC50 for block of hERG1, WT, applied extracellularly, tail currents, room temperature); 45 µM against F656C hERG1.

Consider `CN(CCOc1ccc(NS(C)(=O)=O)cc1)CCc1ccc(NS(C)(=O)=O)cc1` [dofetilide], for which the IC50 in the data set with guinea pig myocytes (read-out: high affinity for binding of dofetilide, high-affinity site) is 0.1 µM; with guinea pig myocytes (read-out: low affinity for binding of dofetilide (low affinity IC50 value), low-affinity site), 1 µM. Besides, in the data set with M651T hERG1, the “sensitivity of block to the M651T mutation” value is given as “insensitive”.
